Results on two compounds are retold here after paper PMC4104029, “Mechanism of Action of Compound-13: An α1-Selective Small Molecule Activator of AMPK” (Chemistry & Biology, 2014).

Each structure is given as a SMILES string.

The target of the test is T1, 6-phosphofructo-1 kinase (PFK1) (Mus musculus, UniProt P47857).
T1 construct: made in house; host or cells: E. coli
Nature of the test: PFK1 enzyme assay. The class given is biochemical. The procedure:
Figure 1 The AMP Analog C2 Is a Potent AMPK Activator in Cell-Free Assays with Selectivity for α1 Complexes (A) The structure of the endogenous activator of AMPK, AMP; the AMP mimetic, C2; and the classical AMP mimetic, ZMP, and other AMPK activators are shown. […] (B) Recombinant AMPK complexes (α1β1γ1, α2β1γ1, α1β1γ2, and α1β2γ1) expressed in Spodoptera frugiperda were assayed for allosteric activation by AMP or C2. Results are expressed as the increase in activity relative to controls without ligand and represent the mean ± SD for three independent experiments. (C) Enzymes allosterically regulated by AMP (PFK1 and FBP1) or using AMP as a substrate (AMPD1, AK, and 5′-NT) were assayed in the presence of C2 (≤ 100 μM). Enzymes allosterically regulated by AMP were screened for both agonism and antagonism, the latter in the presence of AMP at ≈ EC50. All enzymes were unaffected by [C2] ≤ 100 μM. Representative data are shown for the effects of AMP and C2 on PFK1 and FBP1 activity. Results are representative of three independent experiments conducted on one enzyme preparation. […]

T1 sequence (P47857 whole entry): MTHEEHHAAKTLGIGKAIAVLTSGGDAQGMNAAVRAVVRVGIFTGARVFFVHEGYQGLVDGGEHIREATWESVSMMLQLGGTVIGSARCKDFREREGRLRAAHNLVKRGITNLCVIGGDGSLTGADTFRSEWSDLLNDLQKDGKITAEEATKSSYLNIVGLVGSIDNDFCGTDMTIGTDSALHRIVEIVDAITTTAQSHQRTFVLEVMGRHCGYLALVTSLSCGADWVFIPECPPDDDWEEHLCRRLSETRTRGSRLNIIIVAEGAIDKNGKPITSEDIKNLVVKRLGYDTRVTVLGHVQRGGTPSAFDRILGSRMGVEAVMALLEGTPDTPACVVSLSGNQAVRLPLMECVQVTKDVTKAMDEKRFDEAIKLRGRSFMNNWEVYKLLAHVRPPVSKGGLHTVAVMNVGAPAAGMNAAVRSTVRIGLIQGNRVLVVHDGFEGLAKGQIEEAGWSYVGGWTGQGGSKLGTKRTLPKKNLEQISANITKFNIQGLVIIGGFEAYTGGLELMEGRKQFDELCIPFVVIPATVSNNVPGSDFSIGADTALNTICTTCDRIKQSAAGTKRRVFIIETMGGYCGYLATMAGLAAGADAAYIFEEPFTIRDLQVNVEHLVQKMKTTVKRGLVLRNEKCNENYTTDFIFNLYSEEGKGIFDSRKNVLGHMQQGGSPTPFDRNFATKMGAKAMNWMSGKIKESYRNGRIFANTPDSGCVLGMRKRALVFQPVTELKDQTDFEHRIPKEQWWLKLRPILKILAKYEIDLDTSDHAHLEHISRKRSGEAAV

For `Nc1ncnc2c1ncn2[C@@H]1O[C@H](COP(=O)(O)O)[C@@H](O)[C@H]1O` [AMP, reference compound], the EC50 (read-out: EC50, activation of PFK1) worked out at 33 µM. Turning to `O=P(O)(O)c1ccc(-c2cc(O)on2)o1` [Compound C2, 5-(5-hydroxyl-isoxazol-3-yl)-furan-2-phosphonic acid], under “concentrations up to 100 μM”, the “effect on PFK1” value was “no effect”.
